Results published in ChEMBL document CHEMBL4420062, “Tfpi inhibitors and methods of use” (2013).
Where a SMILES comes first, the peptide text is derived from it. [ ]: non-standard residue; d: D form. Aib = CC(C)(N)C(=O)O

The compounds below were run against T1, Tissue factor pathway inhibitor (Homo sapiens, UniProt P10646) (assay: Binding affinity to TFPI (unknown origin) incubated for […] using tracer peptide JBT0131 by screening ELISA).
T1 sequence (P10646 whole entry): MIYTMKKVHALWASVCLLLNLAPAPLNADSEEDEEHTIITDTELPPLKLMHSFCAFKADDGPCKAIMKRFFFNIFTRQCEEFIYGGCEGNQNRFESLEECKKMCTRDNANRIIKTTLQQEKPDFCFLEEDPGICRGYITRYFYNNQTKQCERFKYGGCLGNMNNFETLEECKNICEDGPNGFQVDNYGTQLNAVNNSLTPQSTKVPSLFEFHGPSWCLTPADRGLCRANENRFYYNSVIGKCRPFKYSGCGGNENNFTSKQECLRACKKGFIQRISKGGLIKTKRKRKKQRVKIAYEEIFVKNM

IC50 [µM]	Compound
< 0.05	Ac-FQSKHHVFVDGYFERLCAKL-NH2
> 5	Ac-FQSKKNVFVFGLFERLRAKL-NH2
> 5	Ac-FQSKKNVFVFLYFERLRAKL-NH2
> 0.5	CCCCCCCCCCCCCC(=O)NCCCC[C@H](NC(=O)[C@H]1CCCN1C(=O)[C@H](CCCCN)NC(=O)[C@H](CO)NC(=O)[C@H](CCC(N)=O)NC(=O)[C@H](Cc1ccccc1)NC(=O)CCCCC)C(=O)N[C@H](C(=O)N[C@@H](Cc1cnc[nH]1)C(=O)N[C@H](C(=O)N[C@@H](CC(=O)O)C(=O)N[C@H](C)C(=O)N[C@@H](Cc1ccc(O)cc1)C(=O)N[C@@H](Cc1ccccc1)C(=O)N[C@@H](CCC(=O)O)C(=O)N[C@@H](CCCNC(=N)N)C(=O)N[C@@H](CC(C)C)C(=O)NC(C)(C)C(=O)N[C@@H](C)C(=O)N[C@@H](CCCCN)C(=O)N[C@@H](CC(C)C)C(N)=O)C(C)(C)C)C(C)C
0.556 to 1.67	CC(=O)N[C@H](CC(C)C)C(=O)N[C@H](CCCCN)C(=O)N[C@H](C)C(=O)N[C@H](CCCNC(=N)N)C(=O)N[C@H](CC(C)C)C(=O)N[C@H](CCCNC(=N)N)C(=O)N[C@H](CCC(=O)O)C(=O)N[C@H](Cc1ccccc1)C(=O)N[C@H](Cc1ccc(O)cc1)C(=O)NCC(=O)N[C@H](Cc1ccccc1)C(=O)N[C@@H](C(=O)N[C@H](Cc1ccccc1)C(=O)N[C@@H](C(=O)N[C@H](CC(N)=O)C(=O)N[C@H](CCCCN)C(=O)N[C@H](CCCCN)C(=O)N[C@H](CO)C(=O)N[C@H](CCC(N)=O)C(=O)N[C@H](Cc1ccccc1)C(N)=O)C(C)C)C(C)C
> 1.67	Ac-FDSKKNVFVFGYFERLRAKL-NH2
> 1.67	Ac-FQSKLNVFVFGYFERLRAKL-NH2
> 5	CC(=O)N[C@@H](Cc1ccccc1)C(=O)N[C@@H](CCC(N)=O)C(=O)N[C@@H](CO)C(=O)N[C@@H](CCCCN)C(=O)NCC(=O)N[C@@H](CC(N)=O)C(=O)N[C@H](C(=O)NC(C)(C)C(=O)N[C@H](C(=O)N[C@@H](CC(=O)O)C(=O)NCC(=O)N[C@@H](Cc1ccc(O)cc1)C(=O)N[C@@H](Cc1ccccc1)C(=O)N[C@@H](CCC(=O)O)C(=O)N[C@@H](CCCNC(=N)N)C(=O)N[C@@H](CC(C)C)C(=O)NC(C)(C)C(=O)N[C@@H](C)C(=O)N[C@@H](CCCCN)C(=O)N[C@@H](CC(C)C)C(N)=O)C(C)C)C(C)C (Ac-FQSKGNV[Aib]VDGYFERL[Aib]AKL-NH2)
> 5	CC(=O)N[C@@H](Cc1ccccc1)C(=O)N[C@@H](CCC(N)=O)C(=O)N[C@@H](CO)C(=O)N[C@@H](CCCCN)C(=O)NCC(=O)N[C@@H](CC(N)=O)C(=O)N[C@H](C(=O)N[C@@H](Cc1ccccc1)C(=O)N[C@H](C(=O)N[C@@H](CC(=O)O)C(=O)NCC(=O)N[C@@H](Cc1ccc(O)cc1)C(=O)N[C@@H](Cc1ccccc1)C(=O)N[C@@H](CCC(=O)O)C(=O)NC(C)(C)C(=O)N[C@@H](CC(C)C)C(=O)NC(C)(C)C(=O)N[C@@H](C)C(=O)N[C@@H](CCCCN)C(=O)N[C@@H](CC(C)C)C(N)=O)C(C)C)C(C)C (Ac-FQSKGNVFVDGYFE[Aib]L[Aib]AKL-NH2)
> 5	Ac-FQSKKFVFVFGYFERLRAKL-NH2
> 5	Ac-FQSKKNDFVFGYFERLRAKL-NH2
> 1.67	Ac-FQSKKNVFVFFYFERLRAKL-NH2
> 5	Ac-FQSKKNVFVFGYFERLRAFL-NH2
> 5	Ac-FQSKKLVFVFGYFERLRAKL-NH2
> 5	Ac-FQSKKNVFVFGFFERLRAKL-NH2
> 5	Ac-FQFKKNVFVFGYFERLRAKL-NH2
